In brackets after ≈: the same amount, converted by molar mass. Like-named read-outs stand apart in the source and are kept apart here.
Key:
Assay type in all cases: cell-based
[1] = test system: Bacillus subtilis ATCC 6633; conditions: ATCC6633, agar serial dilution, 24 hours at 37°C
[2] = test system: Staphylococcus aureus A 321; conditions: A321, agar serial dilution, 24 hours at 37°C
[3] = test system: Staphylococcus aureus A 355'; conditions: agar serial dilution, 24 hours at 37°C
[4] = test system: Staphylococcus aureus A 2000; conditions: A2000, agar serial dilution, 24 hours at 37°C
[5] = test system: Staphylococcus aureus A 2001; conditions: A2001, agar serial dilution, 24 hours at 37°C
[6] = test system: Streptococcus haemolyticus A 266; conditions: A266, agar serial dilution, 24 hours at 37°C
[7] = test system: Streptococcus faecalis L 80; conditions: Enterococcus faecalis, L80; agar serial dilution, 24 hours at 37°C
[8] = test system: Diplococcus pneumoniae L 54; conditions: Streptococcus pneumoniae, L54; agar serial dilution, 24 hours at 37°C
[9] = test system: Pasteurella multocida A 723; conditions: A723, agar serial dilution, 24 hours at 37°C
[10] = test system: Klebsiella pneumoniae A 809; conditions: A809, agar serial dilution, 24 hours at 37°C
Salmonella dublin P 43 = conditions: Salmonella enterica, P43; agar serial dilution, 24 hours at 37°C
[11] = test system: Salmonella typhimurium R 127; conditions: Salmonella enterica, agar serial dilution, 24 hours at 37°C
Escherichia coli U 20 = conditions: U20, agar serial dilution, 24 hours at 37°C
[12] = test system: Pseudomonas aeruginosa H 10; conditions: H10, agar serial dilution, 24 hours at 37°C
[13] = test system: Pseudomonas aeruginosa 2396; conditions: agar serial dilution, 24 hours at 37°C
[14] = test system: Pseudomonas aeruginosa Wyeth A 1058; conditions: WYETHA1058, agar serial dilution, 24 hours at 37°C
Proteus rettgeri A 821 [15] = conditions: Providencia rettgeri, A821; agar serial dilution, 24 hours at 37°C
Proteus mirabilis H 3 = conditions: H3, agar serial dilution, 24 hours at 37°C
Proteus mirabilis A 1200 = conditions: A1200, agar serial dilution, 24 hours at 37°C
Proteus morganii 2241 = conditions: Morganella morganii, agar serial dilution, 24 hours at 37°C
[16] = test system: Salmonella typhimurium R172; conditions: Salmonella enterica, agar serial dilution, 24 hours at 37°C
[17] = test system: Haemophilus influenzae A 1030; experiment: micro serial dilution test, MIC; conditions: A1030, micro serial dilution (between brackets), 30°C or 37°C, about 18 hours
Proteus rettgeri A 821 [18] = experiment: micro serial dilution test, MIC; conditions: Providencia rettgeri, A821; micro serial dilution (between brackets), 30°C or 37°C, about 18 hours
[19] = test system: Streptococcus haemolyticus A 1088; conditions: A1088, agar serial dilution, 24 hours at 37°C

Compound | MIC [1] | MIC [2] | MIC [3] | MIC [4] | MIC [5] | MIC [6] | MIC [7] | MIC [8] | MIC [9] | MIC [10] | MIC (Salmonella dublin P 43) | MIC (Escherichia coli U 20) | MIC [12] | MIC [13] | MIC [14] | MIC (Proteus mirabilis H 3) | MIC (Proteus mirabilis A 1200) | MIC (Proteus morganii 2241) | MIC [16] | MIC [17] | further results
CCOC(=O)NS(=O)(=O)N[C@@H](C(=O)N[C@@H]1C(=O)N2[C@@H]1SC(C)(C)[C@@H]2C(=O)O)c1ccccc1 [XIX, D-6-[α-(ethoxycarbonylaminosulfonylamino)-benzylcarbonamido]-penicillanic acid] | 1 µg/mL (≈ 2 µM) | 3 µg/mL (≈ 5.99 µM) | 50 µg/mL (≈ 99.9 µM) | 12.5 µg/mL (≈ 25 µM) | 6 µg/mL (≈ 12 µM) | 0.25 µg/mL (≈ 0.499 µM) | 25 µg/mL (≈ 49.9 µM) | 3 µg/mL (≈ 5.99 µM) | 0.5 µg/mL (≈ 0.999 µM) | > 100 µg/mL | 50 µg/mL (≈ 99.9 µM) | 100 µg/mL (≈ 200 µM) | > 100 µg/mL | 100 µg/mL (≈ 200 µM) | 50 µg/mL (≈ 99.9 µM) | 25 µg/mL (≈ 49.9 µM) | 25 µg/mL (≈ 49.9 µM) | > 100 µg/mL |  |  | MIC [11]: 100 µg/mL (≈ 200 µM); MIC (Proteus rettgeri A 821 [15]): 3 µg/mL (≈ 5.99 µM)
CC1(C)S[C@@H]2[C@H](NC(=O)[C@H](NC(=O)NS(=O)(=O)O)c3ccccc3)C(=O)N2[C@H]1C(=O)O [XVII, D-6-[α-{3-(sulfo)-ureido}-benzylcarbonamido]-penicillanic acid] | 0.5 µg/mL (≈ 1.06 µM) | 3 µg/mL (≈ 6.35 µM) | 12.5 µg/mL (≈ 26.5 µM) | 12.5 µg/mL (≈ 26.5 µM) | 12.5 µg/mL (≈ 26.5 µM) | 0.12 µg/mL (≈ 0.254 µM) | 25 µg/mL (≈ 52.9 µM) | 0.25 µg/mL (≈ 0.529 µM) | 0.12 µg/mL (≈ 0.254 µM) | 100 µg/mL (≈ 212 µM) | 6 µg/mL (≈ 12.7 µM) | 25 µg/mL (≈ 52.9 µM) | 50 µg/mL (≈ 106 µM) | 25 µg/mL (≈ 52.9 µM) | 25 µg/mL (≈ 52.9 µM) | < 0.75 µg/mL | 3 µg/mL (≈ 6.35 µM) | 50 µg/mL (≈ 106 µM) |  |  | MIC [11]: 50 µg/mL (≈ 106 µM); MIC (Proteus rettgeri A 821 [15]): < 0.75 µg/mL
CC(=NS(=O)(=O)N[C@@H](C(=O)N[C@@H]1C(=O)N2[C@@H]1SC(C)(C)[C@@H]2C(=O)O)c1ccccc1)N(C)C [XXI, D-6-[α-{1-(dimethylamino)-ethylideneamino-sulfonamido}-benzylcarbonamido]-penicillanic acid] | 0.12 µg/mL (≈ 0.241 µM) | 1.5 µg/mL (≈ 3.01 µM) |  |  |  | 0.12 µg/mL (≈ 0.241 µM) | 3 µg/mL (≈ 6.03 µM) | 0.75 µg/mL (≈ 1.51 µM) | 0.75 µg/mL (≈ 1.51 µM) | 100 µg/mL (≈ 201 µM) | 25 µg/mL (≈ 50.2 µM) | 100 µg/mL (≈ 201 µM) | > 100 µg/mL | 100 µg/mL (≈ 201 µM) | > 100 µg/mL | 50 µg/mL (≈ 100 µM) | 25 µg/mL (≈ 50.2 µM) | 25 µg/mL (≈ 50.2 µM) | 100 µg/mL (≈ 201 µM) | 1.8 µg/mL (≈ 3.62 µM) | MIC (Proteus rettgeri A 821 [18]): 0.6 µg/mL (≈ 1.21 µM)
CN1CCCC1=NS(=O)(=O)N[C@@H](C(=O)N[C@@H]1C(=O)N2[C@@H]1SC(C)(C)[C@@H]2C(=O)O)c1ccccc1 [XXIII, D-6-[α-{1-(methylpyrrolidin-2-ylidene)-amino-sulfonamido}-benzylcarbonamido] -penicillanic acid] | 0.12 µg/mL (≈ 0.235 µM) | 1 µg/mL (≈ 1.96 µM) | 6 µg/mL (≈ 11.8 µM) | 6 µg/mL (≈ 11.8 µM) | 3 µg/mL (≈ 5.89 µM) | 0.06 µg/mL (≈ 0.118 µM) | 1.5 µg/mL (≈ 2.94 µM) | 0.5 µg/mL (≈ 0.981 µM) | 0.5 µg/mL (≈ 0.981 µM) | > 100 µg/mL | 50 µg/mL (≈ 98.1 µM) | 100 µg/mL (≈ 196 µM) | > 100 µg/mL | > 100 µg/mL | > 100 µg/mL | 50 µg/mL (≈ 98.1 µM) | 12.5 µg/mL (≈ 24.5 µM) | 50 µg/mL (≈ 98.1 µM) | 100 µg/mL (≈ 196 µM) | 125 µg/mL (≈ 245 µM) | MIC (Proteus rettgeri A 821 [18]): 0.9 µg/mL (≈ 1.77 µM)
CC1(C)S[C@@H]2[C@H](NC(=O)[C@H](NC(=O)NS(=O)(=O)NCc3ccccc3)c3ccccc3)C(=O)N2[C@H]1C(=O)O [XXXII, D-6-[α-{3-(benzylaminosulfonyl)-ureido}-benzylcarbonamido]-penicillanic acid] | 0.5 µg/mL (≈ 0.89 µM) |  | 6 µg/mL (≈ 10.7 µM) | 6 µg/mL (≈ 10.7 µM) | 6 µg/mL (≈ 10.7 µM) |  | 12.5 µg/mL (≈ 22.3 µM) | 50 µg/mL (≈ 89 µM) | 0.5 µg/mL (≈ 0.89 µM) | 12.5 µg/mL (≈ 22.3 µM) | 6 µg/mL (≈ 10.7 µM) | 6 µg/mL (≈ 10.7 µM) | 100 µg/mL (≈ 178 µM) | 25 µg/mL (≈ 44.5 µM) | 12.5 µg/mL (≈ 22.3 µM) | 6 µg/mL (≈ 10.7 µM) | 3 µg/mL (≈ 5.34 µM) | 12.5 µg/mL (≈ 22.3 µM) | 25 µg/mL (≈ 44.5 µM) | 23 µg/mL (≈ 41 µM) | MIC [19]: 0.25 µg/mL (≈ 0.445 µM); MIC (Proteus rettgeri A 821 [18]): 0.025 µg/mL (≈ 0.0445 µM)
